Experimental data from patent publication US9102648B1, “Bioavailable diacylhydrazine ligands for modulating the expression of exogenous genes via an ecdysone receptor complex” (Intrexon Corporation, priority 2003, dated 2015).

What was measured:
[1] = target: T1, Bombyx mori EcR (VP16 fusion, CVBE switch construct) (Bombyx mori, UniProt P49881); test: Z3 Assay (HEK-293 cells with CVBE and 6XEcRE LacZ, β-galactosidase reporter); details: for Fold Induction, Z3 Assay, 3.3 uM: 3.3 uM ligand; for Fold Induction, Z3 Assay, 3.3 uM / Fold Induction, Z3 Assay, 33 uM: ligand treated / DMSO treated cells; for Fold Induction, Z3 Assay, 3.3 uM / Fold Induction, Z3 Assay, 33 uM / EC50: average of two wells; for Fold Induction, Z3 Assay, 33 uM: 33 uM ligand; for Z3 assay Rel Max FI: maximum fold induction at any concentration relative to that of GS-E ligand; for Z3 assay Rel Max FI / EC50: HEK-293 Z3 cells; for EC50: read-out: Z3 assay EC50, β-galactosidase reporter
T1 sequence (P49881 86-606): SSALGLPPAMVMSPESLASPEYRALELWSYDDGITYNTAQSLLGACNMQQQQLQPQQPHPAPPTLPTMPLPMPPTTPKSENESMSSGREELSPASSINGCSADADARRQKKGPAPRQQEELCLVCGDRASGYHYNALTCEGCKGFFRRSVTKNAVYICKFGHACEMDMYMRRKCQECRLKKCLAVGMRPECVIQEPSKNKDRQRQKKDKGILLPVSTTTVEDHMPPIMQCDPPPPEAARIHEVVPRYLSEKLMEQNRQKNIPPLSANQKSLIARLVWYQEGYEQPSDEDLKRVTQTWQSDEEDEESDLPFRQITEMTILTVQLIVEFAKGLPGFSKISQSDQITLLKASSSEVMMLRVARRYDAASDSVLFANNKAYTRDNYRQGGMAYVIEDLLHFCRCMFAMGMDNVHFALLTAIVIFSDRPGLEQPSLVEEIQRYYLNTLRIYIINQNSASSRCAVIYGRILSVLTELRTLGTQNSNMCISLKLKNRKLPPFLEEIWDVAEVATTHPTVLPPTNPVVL
T1 sequence (P19793 1-462 partner): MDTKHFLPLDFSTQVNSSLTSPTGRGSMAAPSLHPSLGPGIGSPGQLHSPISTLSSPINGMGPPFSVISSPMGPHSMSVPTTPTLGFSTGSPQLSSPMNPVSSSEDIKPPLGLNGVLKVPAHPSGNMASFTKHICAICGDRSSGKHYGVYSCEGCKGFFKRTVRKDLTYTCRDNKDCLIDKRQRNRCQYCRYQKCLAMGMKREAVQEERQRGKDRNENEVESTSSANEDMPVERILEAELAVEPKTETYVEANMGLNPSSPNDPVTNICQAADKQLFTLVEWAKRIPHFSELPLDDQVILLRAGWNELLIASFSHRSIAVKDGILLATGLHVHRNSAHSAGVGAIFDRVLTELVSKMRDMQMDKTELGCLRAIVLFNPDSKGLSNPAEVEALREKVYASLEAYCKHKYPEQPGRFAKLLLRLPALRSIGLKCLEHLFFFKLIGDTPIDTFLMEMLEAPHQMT
Excerpt: Dr. F. Gage provided a population of stably transformed cells containing CVBE and 6XEcRE as described in Suhr, S. T., Gil, E. B., Senut M. C., Gage, F. H. (1998) Proc. Natl. Acad. Sci. USA 95, 7999-804. Human 293 kidney cells, also referred to as HEK-293 cells, were sequentially infected with retroviral vectors encoding first the switch construct CVBE, and subsequently the reporter construct 6XEcRE Lac Z. The switch construct contained the coding sequence for amino acids 26-546 from Bombyx mori EcR (BE) (Iatrou) inserted in frame and downstream of the VP16 transactivation domain (VBE). A synthetic ATG start codon was placed under the control of cytomegalovirus (CVBE) immediate early promoter and flanked by long terminal repeats (LTR). The reporter construct contained six copies of the ecdysone response element (EcRE) binding site placed upstream of LacZ and flanked on both sides with LTR sequences (6XEcRE).
Dilution cloning was used to isolate individual clones. Clones were selected using 450 ug/mL G418 and 100 ng/mL puromycin. Individual clones were evaluated based on their response in the presence and absence of test ligands.
Human 293 kidney cells stably transformed with CVBE and 6XEcRE LacZ were maintained in Minimum Essential Medium (Mediates, 10-010-CV) containing 10% FBS (Life Technologies, 26140-087), […] G418 (Mediates, 30-234-CR), and […] (Sigma, P-7255), at 37° C. in an atmosphere containing 5% CO2 and were subculture when they reached 75% confluence.
Z3 cells were seeded into 96-well tissue culture plates at a concentration of 2.5×10^3 cells per well and incubated at 37° C. in 5% CO2 for twenty-four hours. Stock solutions of ligands were prepared in DMSO. Ligand stock solutions were diluted 100 fold in media and 50 μL of this diluted ligand solution ([…]) was added to cells. The final concentration of DMSO was maintained at 0.03% in both controls and treatments.
Reporter gene expression was evaluated 48 hours after treatment of cells, β-galactosidase activity was measured using Gal Screen™ bioluminescent reporter gene assay system from Tropix (GSY1000). Fold induction activities were calculated by dividing relative light units (“RLU”) in ligand treated cells with RLU in DMSO treated cells. Luminescence was detected at room temperature using a Dynex MLX microtiter plate luminometer.
Flanking both constructs are long terminal repeats, G418 and puromycin are selectable markers, CMV is the cytomegalovirus promoter, VBE is coding sequence for amino acids 26-546 from Bombyx mori EcR inserted downstream of the VP16 transactivation domain, 6×EcRE is six copies of the ecdysone response element, lacZ encodes for the reporter enzyme β-galactosidase.
(§1) Each assay was conducted in two separate wells, and the two values were averaged. Fold inductions were calculated by dividing relative light units (“RLU”) in ligand treated cells with RLU in DMSO treated cells. EC50s were calculated from dose response data using a three-parameter logistic model.

[2] = target: GAL4 DBD-CfEcR(DEF)/VP16AD-MmRXRE (Choristoneura fumiferana, UniProt O77240); test: 13B3 Assay (CHO stable cell line, luciferase reporter); details: for Fold Induction, 13B3 Assay, 33 uM: 33 uM ligand
Excerpt: GAL4 DBD-CfEcR(DEF)/VP16AD-MmRXRE:
The wild-type D, E, and F domains from spruce budworm Choristoneura fumiferana EcR (“CfEcR-DEF”; SEQ ID NO: 1) were fused to a GALA DNA binding domain (“Gal4DBD1-147”; SEQ ID NO: 2) and placed under the control of the SV40e promoter of pM vector (PT3119-5, Clontech, Palo Alto, Calif.). The D and E domains from Mus Musculus RXR (“MmRXR-DE”; SEQ ID NO: 11) were fused to the transactivation domain from VP16 (“VP16AD”; SEQ ID NO: 6) and placed under the control of the SV40e promoter of the pVP16 vector (PT3127-5, Clontech, Palo Alto, Calif.).
CHO cells were transiently transfected with transcription cassettes for GAL4 DBD-CJEcR(DEF) and for VP16AD-MmRXRE controlled by SV40e promoters. Stably transfected cells were selected using Hygromycin. Individually isolated CHO cell clones were transiently transfected with a GALA RE-luciferase reporter (pFR-Luc, Stratagene, La Jolla, Calif.). The 13B3 clone was selected using Zeocin.
Cells were trypsinized and diluted to a concentration of 2.5×10^4 cells mL. 100 μL of cell suspension was placed in each well of a 96 well plate and incubated at 37° C. under 5% CO2 for 24 h. Ligand stock solutions were prepared in DMSO and diluted 300 fold for all treatments. Dose response testing consisted of 8 concentrations ranging from 33 μM to 0.01 μM.
(§2) Luciferase reporter gene expression was measured 48 h after cell treatment using Bright-Glo™ Luciferase Assay System from Promega (E2650). Luminescence was detected at room temperature using a Dynex MLX microtiter plate luminometer.
as §1

[3] = target: GAL4 DBD (1-147)-CfEcR(DEF)/VP16AD-βRXREF-LmUSPEF (Choristoneura fumiferana, UniProt O77240); test: cell-based
Excerpt: GAL4 DBD (1-147)-CfEcR(DEF)/VP16AD-βRXREF-LmUSPEF:
The wild-type D, E, and F domains from spruce budworm Choristoneura fumiferana EcR (“CfEcR-DEF”; SEQ ID NO: 1) were fused to a GAL4 DNA binding domain (“Gal4DBD1-147”; SEQ ID NO: 2) and placed under the control of a phosphoglycerate kinase promoter (“PGK”; SEQ ID NO: 3). Helices 1 through 8 of the EF domains from Homo sapiens RXRβ (“HsRXRβ-EF”; nucleotides 1-465 of SEQ ID NO: 4) and helices 9 through 12 of the EF domains of Locusta migratoria Ultraspiracle Protein (“LmUSP-EF”; nucleotides 403-630 of SEQ ID NO: 5) were fused to the transactivation domain from VP16 (“VP16AD”; SEQ ID NO: 6) and placed under the control of an elongation factor-1α promoter (“EF-1α”; SEQ ID NO: 7). Five consensus GAL4 response element binding sites (“5XGAL4RE”; comprising 5 copies of a GAL4RE comprising SEQ ID NO: 8) were fused to a synthetic TATA minimal promoter (SEQ ID NO: 9) and placed upstream of the luciferase reporter gene (SEQ ID NO: 10).
CHO cells were transiently transfected with transcription cassettes for GAL4 DBD (1-147) CJEcR(DEF) and for VP16AD βRXREF-LmUSPEF controlled by ubiquitously active cellular promoters (PGK and EF-la, respectively) on a single plasmid. Stably transfected cells were selected by Zeocin resistance. Individually isolated CHO cell clones were transiently transfected with a GAL4 RE-luciferase reporter (pFR Luc). 27-63 clone was selected using Hygromycin.
Cells were trypsinized and diluted to a concentration of 2.5×10^4 cells mL. 100 μL of cell suspension was placed in each well of a 96 well plate and incubated at 37° C. under 5% CO2 for 24 h. Ligand stock solutions were prepared in DMSO and diluted 300 fold for all treatments. Dose response testing consisted of 8 concentrations ranging from […] to 0.01 μM.
as §2, §1

[4] = RLU ligand treated / RLU DMSO treated cells, average of two wells
[5] = 3.3 uM ligand, RLU ligand treated / RLU DMSO treated cells, average of two wells

Structure (SMILES) | Fold Induction, Z3 Assay, 3.3 uM [1] | Fold Induction, Z3 Assay, 33 uM [1] | Z3 assay Rel Max FI [1] | EC50 [1] [nM] | Fold Induction, 13B3 Assay, 33 uM [2, 4] | Fold Induction, 13B3 Assay, 3.3 uM [2, 5] | 13B3 assay Rel Max FI ([2]; maximum fold induction at any concentration relative to that of GS-E ligand, CHO 13B3 cells) | EC50 ([2]; read-out: 13B3 EC50, CHO 13B3 stable cell line, luciferase reporter, 48 h, average of two wells) [nM] | Fold Induction, 27-63 Assay, 3.3 uM [3, 5] | Fold Induction, 27-63 Assay, 33 uM ([3]; 33 uM ligand, RLU ligand treated / RLU DMSO treated cells, average of two wells) | 27-63 assay Rel Max FI ([3]; maximum fold induction at any concentration relative to that of GS-E ligand, CHO 27-63 cells) | EC50 ([3]; read-out: 27-63 assay EC50, CHO 27-63 stable cell line, luciferase reporter, average of two wells) [nM] | fold induction at 33 µM ([2]; read-out: Fold Induction, 13B3 Assay, 33 uM)
Cc1cc(C)cc(C(=O)N(NC(=O)c2ccc3c(c2)OC(C)CO3)C(C)(C)C)c1 (racemic) [RG-101509] | 1303 | 328 | 0.882 | 1180 | 1144 |  |  |  |  |  |  |  | 
CCCCC(CC)N(NC(=O)c1cccc(C)c1C)C(=O)c1ccccc1 (racemic) [RG-103361] | 171 | 244 | 0.938 | 526 | 2262 | 504 | 0.758 | 28000 |  |  |  |  | 
COc1cccc(C(=O)NN(C(=O)c2cc(Cl)nc(Cl)c2)C(C)(C)C)c1C [RG-100394] | 1339 | 11 |  | 1220 | 178 |  |  |  |  |  |  |  | 
COc1cc(F)ccc1C(=O)N(NC(=O)c1cccc(OC)c1C)C(C)(C)C [RG-100524] | 991 | 146 | 1.002 | 263 | 1211 |  |  |  |  |  |  |  | 
CCc1c(C(=O)NN(C(=O)c2ccc(F)cc2)C(C)(C)C)ccc2c1OCOC2 [RG-100574] |  | 389 |  | 1120 |  |  |  |  | 151 | 21 | 0.371 | 4000 | 
COc1cccc(C(=O)NN(C(=O)c2cc(F)ccc2F)C(C)(C)C)c1C [RG-100603] |  | 453 |  |  | 570 |  |  |  |  |  |  |  | 
CC(C)(C)N(NC(=O)c1c(F)ccc(F)c1F)C(=O)c1ccc(F)cc1Cl [RG-100620] | 710 | 428 | 0.869 | 2400 | 13982 |  |  |  |  |  |  |  | 
CCc1c(OC)cccc1C(=O)NN(C(=O)c1cc(C)nc(Cl)c1)C(C)(C)C [RG-100667] | 1480 | 238 | 0.890 | 347 | 1191 |  |  |  |  |  |  |  | 
CCc1c(C(=O)NN(C(=O)c2ccccc2OC)C(C)(C)C)ccc2c1OCO2 [RG-100698] | 1089 | 591 | 1.025 | 1000 | 434 |  |  |  |  |  |  |  | 
CCc1c(OC)cccc1C(=O)NN(C(=O)c1ccc2ncn(C(c3ccccc3)(c3ccccc3)c3ccccc3)c2c1)C(C)(C)C [RG-115718, 3-trityl-3H-benzoimidazole-5-carboxylic acid N-tert-butyl-N′-(2-ethyl-3-methoxy-benzoyl)-hydrazide] |  |  |  |  |  |  |  |  |  |  |  |  | 2
